Assay results published in patent US4914107A, “Method for selectively blocking 5-HT2 receptors” (Eli Lilly and Company, priority 1989, dated 1990).
pKd: −log10 of the molar value. Like-named read-outs stand apart in the source and are kept apart here.

How the values were obtained:
[1] = tested on: vascular (5HT2) serotonin receptors; assay: Duration of inhibition of vascular 5HT2 receptors in pithed rats (serotonin challenge 0.1 mg/kg i.v.); type: in vivo, rat; conditions: for inhibition of vascular serotonin receptors: pithed rats; for Increase in mean blood pressure to serotonin: 0.1 mg/kg iv
Description: For these studies pithed rats were treated with vehicle or with the acid or the ester at a dose of 0.1 mg/kg, i.v. and challenged with serotonin (0.1 mg/kg i.v.) at various intervals for 2 hrs. after test compound or vehicle administration.

[2] = tested on: vascular (5HT2) serotonin receptors; assay: Inhibition of the pressor response to serotonin in pithed rats after intravenous test compound; type: in vivo, rat; conditions: for effect on pressor response to serotonin: pithed rats
Description: Serotonin receptor antagonism was evaluated in pithed Wistar normotensive rats (Charles River, Inc. Portage, MI; 240-374 g) since responses in the pithed preparation are primarily direct vascular effects. Rats were anesthetized with Metofane® (methoxyflurane), carotid arterial and femoral venous catheters were implanted, and the trachea was cannulated. Rats were pithed and ventilated with room air (Cohen et al., supra, 1983; Cohen et al., supra, 1985). An equilibration period of 15 min. was observed before control measurements and i.v. administration of test compound or vehicle. Increasing intravenous doses of serotonin were injected 15 min. after intravenous administration of test compound or vehicle. […] By intravenous administration, 1-isopropyldihydrolysergic acid was only approximately one-third as potent as the ester in blocking vascular 5HT2 receptors.

5HT2 receptors [3] = target: T1, 5HT2 receptors (Rattus norvegicus, UniProt P14842); conditions: cited from earlier work
T1 construct: Ring preparations of external rat jugular veins were used; tissue Harlan Sprague-Dawley, Inc., Cumberland, IN (animals); host or cells: external jugular vein rings of male Wistar rats

[4] = tested on: vascular (5HT2) serotonin receptors; assay: Duration of inhibition of vascular 5HT2 receptors in pithed rats (serotonin challenge 0.1 mg/kg i.v.); type: in vivo, rat; conditions: 0.3 mg/kg iv
5HT2 receptors [5] = target: T1, 5HT2 receptors; assay: Antagonism of serotonin-induced contractions in the rat jugular vein (in vitro 5HT2 affinity); type: cell-based
Description: Male Wistar rats (150-300 g) (Harlan Sprague-Dawley, Inc., Cumberland, IN) were killed by cervical dislocation. Ring preparations of external rat jugular veins were used as detailed in [(Cohen et al., J. Pharm. and Exper. Therapeutics 227, 327-332 (1983); Cohen et al., J. Pharm. and Exper. Therapeutics 235, 319-323 (1985).]
Tissues were mounted in organ baths containing 10 ml of modified Krebs' solution of the following composition (millimolar concentrations): NaCl, 118.2; KCl, 4.6; CaCl2.2H2 O, 1.6; KH2 PO4, 1.2; MgSO4, 1.2; dextrose, 10.0; and NaHCO3, 24.8. Tissue bath solutions were maintained at 37° C. and aerated with 95% O2 -5% CO2. Isometric contractions were recorded as changes in grams of force on a Beckman Dynograph with Statham UC-3 transducers and microscale accessory attachments. Tissues were allowed to equilibrate at an initial optimum resting force for 1 to 2 hr before exposure to test compound.
After control contractile responses to serotonin were obtained in the jugular vein, vessels were incubated with appropriate concentrations of the test compound for 1 hr. Responses to serotonin were then repeated in the presence of test compound.
Apparent test compound dissociation constants (KB) were determined for each concentration of test compound according to the following equation: [formula] where (B) is the concentration of the test compound and dose ratio is the ED50 of the serotonin in the presence of the test compound divided by the control ED50. […] The data were also analyzed according to the procedure of Arunlakshana and Schild, Brit. J. Pharmacol. 14, 48-58 (1959) as previously described [Cohen et al., supra (1983)].

[6] = 15 minutes after test compound, serotonin 0.1 mg/kg iv
[7] = 120 minutes after test compound

T1 sequence (P14842 whole entry): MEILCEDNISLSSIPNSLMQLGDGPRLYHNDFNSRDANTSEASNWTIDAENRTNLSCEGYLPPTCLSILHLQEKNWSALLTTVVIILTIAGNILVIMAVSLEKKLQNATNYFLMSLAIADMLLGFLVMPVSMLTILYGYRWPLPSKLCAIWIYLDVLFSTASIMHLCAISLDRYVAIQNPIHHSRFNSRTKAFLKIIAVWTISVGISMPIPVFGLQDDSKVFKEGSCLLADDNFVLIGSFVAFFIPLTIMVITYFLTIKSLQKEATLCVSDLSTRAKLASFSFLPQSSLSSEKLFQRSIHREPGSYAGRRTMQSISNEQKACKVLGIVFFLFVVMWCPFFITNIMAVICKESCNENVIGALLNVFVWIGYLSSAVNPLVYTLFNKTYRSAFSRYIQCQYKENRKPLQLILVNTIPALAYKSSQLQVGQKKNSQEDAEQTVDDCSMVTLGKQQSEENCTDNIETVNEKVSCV

In the case of `COC1CCC(OC(=O)C2C[C@@H]3c4cccc5c4c(cn5C(C)C)C[C@H]3N(C)C2)CC1` (some centres unmarked) [I, reference compound], the “inhibition of vascular serotonin receptors” value ([1]; 0.1 mg/kg i.v.) was “greater inhibition of vascular serotonin receptors than the acid”, the “Increase in mean blood pressure to serotonin” value (“Increase” below) [1, 6] was 7.3 mm Hg and the “Increase” value ([1]; 30 minutes after test compound) was 12.7 mm Hg. For the same compound, the “Increase” value ([1]; 60 minutes after test compound) was 23.9 mm Hg, the “Increase” value ([1]; 90 minutes after test compound) was 34.6 mm Hg and the “Increase” value [1, 7] was 34.6 mm Hg. The “effect on pressor response to serotonin” value ([2]; intravenous) was “dose-dependently inhibited”.
For `CC(C)n1cc2c3c(cccc31)C1C[C@@H](C(=O)O)CN(C)[C@@H]1C2` (some centres unmarked) [II, 1-isopropyldihydrolysergic acid], the “inhibition of vascular serotonin receptors” value ([1]; 0.1 mg/kg i.v.) was “marked block of vascular serotonin receptors”, the “inhibition of serotonin vascular response 2 hrs. after administration” value ([1]; 0.1 mg/kg i.v., 2 hrs. after intravenous administration) was “marked inhibition of serotonin vascular response was still apparent” and the “Increase” value [1, 6] was 29.7 mm Hg. The “Increase” value ([1]; 30 minutes after test compound) was 27.8 mm Hg, the “Increase” value ([1]; 60 minutes after test compound) was 35.3 mm Hg and the “Increase” value ([1]; 90 minutes after test compound) was 41.7 mm Hg. The “Increase” value [1, 7] was 48.1 mm Hg, the “affinity in vitro for 5HT2 receptors (background statement)” value (5HT2 receptors [3]) was “relatively low affinity” and the “Increase” value ([4]; 15 minutes after test compound) was 3.2 mm Hg. For the same compound, the “Increase” value ([4]; 30 minutes after test compound) was 3.4 mm Hg, the “Increase” value ([4]; 60 minutes after test compound) was 4.2 mm Hg and the “Increase” value ([4]; 90 minutes after test compound) was 9.6 mm Hg. The “Increase” value [4, 7] was 13.6 mm Hg, the Kb (5HT2 receptors [5]; Schild plot abscissa intercept, rat jugular vein, read-out: pA2 (converted)) was 151 nM and the “type of antagonism at 5HT2 receptors” value (5HT2 receptors [5]; jugular vein, Schild slope not different from negative unity) was “competitive antagonist”. For the same compound, the pKd (5HT2 receptors [5]; rat jugular vein) was roughly 7.00, the “affinity fold lower than the 4-methoxycyclohexyl ester” value (5HT2 receptors [5]; rat jugular vein) was “approximately 100 fold” and the Kb (5HT2 receptors [5]; rat jugular vein, serotonin contraction, apparent dissociation constant, n tissues in parentheses, read-out: -log KB ± SE(n) (converted)) was 85.1 nM. For the same compound, the “ratio II/I (pA2)” value (5HT2 receptors [5]; ratio from pA2 of II and I) was 170, the “ratio II/I (KB)” value (5HT2 receptors [5]; ratio of KB of II to I) was 78 and the “-Slope” value (5HT2 receptors [5]; slope of Schild plot, rat jugular vein) was 1.29. For the same compound, the “potency as a 5HT2 antagonist in vivo” value ([2]; in vivo) was “relatively high potency”, the “intravenous dose relative to the 4-methoxycyclohexyl ester to block vascular 5HT2 receptors” value ([2]; intravenous) was “three-fold higher” and the “potency relative to the ester in blocking vascular 5HT2 receptors” value ([2]; intravenous administration) was “approximately one-third”. The “effect on pressor response to serotonin” value ([2]; intravenous) was “dose-dependently inhibited”.
